Experimental data published in patent US5556849A, “Ruthenium containing phthalocyanin photosensitizers” (priority 1991, dated 1996).
pIC50: −log10 of the molar value. One block for each compound: values may come before it.

Columns and labels:
[1] = system: Adherent cells (HeLa RCA. SKOV OVCAR); assay: Phototoxicity (Light): 3H-thymidine incorporation in adherent cells after irradiation, with dark cytotoxicity for PI; format: cell-based; conditions: for pIC50 / PC50 (phototoxic concentration 50%): with light dose, 50% reduction in cancer cell growth vs untreated control, 24 h incubation with sensitizer; for pIC50: read-out: PC50 (phototoxic concentration 50%); for PI (phototoxicity index): ratio of PC50 to cytotoxic concentration 50% (no light)
Protocol: The media is removed and the cells washed three times with D-PBS. and then covered with D-PBS (200 μl ) and exposed to light from the same source used in the singlet oxygen assay.
This follows the procedure for phototoxicity except that the cells are never exposed to light. The assay is relative to a non-treated control.
(§1) Compounds according to the invention were assessed and characterised by their light absorption maxima, and their molar extinction coefficients according to conventional test procedures. Most of the compound were tested for their biological activity according to conventional test procedures in the art. The PC50 represents phototoxic concentration 50%. which is the concentration of compound when exposed to a light dose as described herein, causes a 50% reduction in cancer cell growth vs an untreated control population. The phototoxicity index. PI, is the ratio of the PC50 to the cytotoxic concentration 50%. where the growth is reduced by 50% without a light dose being given.
PC50 is determined by a relatively simple in vitro assay on a cellular level, which is generally indicative of photosensitizing activity.

[2] = Light absorption maxima and molar extinction coefficients; format: physicochemical
Protocol: as §1

[3] = Singlet oxygen generation by photo-degradation of nitrosoanaline dye; conditions: 15 minutes of irradiation, 4° C.
normal rat liver = assay: Photodynamic threshold dose in normal rat liver, depth of necrosis; format: in vivo, adult Wistat rats
Protocol: The photodynamic threshold dose in normal rat liver was used as a model. This has been developed by Singh and Wilson at McMaster University and used to study both chloroaluminum phthalocyanine sulfonate (ASPc) and photofrin (Patterson, M S, et at, Photochern Photobiol, 51,343-349, 1990, and Farrell, T J, et at, Proc SPIE1426, 146-155, 1991).
1. Inject compound at 2.5 mg/ml into tail vein of adult Wistat rats at doses of 5, 10.20 mg/kg.
2. 24 hours later expose liver by laparotomy and irradiate surface at up to four locations with a 5 mm diameter lightbeam from an argon-dye laser operating at 650 nm: incident power =40 m Watt: incident fluenee rate =200 mW cm^-2 : treatment time =5 or 10 minutes (60. 120 Joules cm^-2).
3. 24 hours later inject Evans Blue iv, sacrifice at 15 minutes, section Liver through each radiation spot and measure depth of necrosis as indicated by dye exclusion.

Compound: O=S(=O)([O-])c1cccc(P(c2cccc(S(=O)(=O)[O-])c2)c2cccc(S(=O)(=O)[O-])c2)c1.O=S(=O)([O-])c1cccc(P(c2cccc(S(=O)(=O)[O-])c2)c2cccc(S(=O)(=O)[O-])c2)c1.[Na+].[Na+].[Na+].[Na+].[Na+].[Na+].c1ccc2cc3c(cc2c1)C1=NC2=NC(=Nc4c5cc6ccccc6cc5c5[n]4[Ru][n]4c(c6cc7ccccc7cc6c4=N5)=NC3=N1)c1cc3ccccc3cc12 [RuNc(TPPTS)2]
pIC50 [1]: < 4.00 | λmax Q ([2]; in water (W)): 720

Compound: NCCC(=O)[O-].NCCC(=O)[O-].[K+].[K+].c1ccc2c(c1)C1=NC3=NC(=Nc4c5ccccc5c5[n]4[Ru][n]4c(c6ccccc6c4=N5)=NC2=N1)c1ccccc13 [RuPc(β-ALA)2]
pIC50 [1]: 5.72 | ε (molar extinction coefficient) [2]: 105000 M⁻¹ cm⁻¹

Compound: aluminium phthalocyanine sulphonate
rate of singlet oxygen production [3]: on the order of one or two logs better than some of the sensitizers listed

ε (molar extinction coefficient) [2]: 83000 M⁻¹ cm⁻¹ | λmax Q ([2]; in water (W)): 730
Compound: O=S(=O)([O-])c1ccc[n+]([Ru-2]2([n+]3cccc(S(=O)(=O)[O-])c3)[n]3c4c5cc6ccccc6cc5c3N=C3N=C(N=c5c6cc7ccccc7cc6c([n]52)=NC2=NC(=N4)c4cc5ccccc5cc42)c2cc4ccccc4cc23)c1.[Na+].[Na+] [RuNc(3PS)2]
PI (phototoxicity index) [1]: 32.6

Compound: O=C(O)c1cncc(C(=O)O)c1.O=C(O)c1cncc(C(=O)O)c1.c1ccc2c(c1)C1=NC2=Nc2c3ccccc3c3[n]2[Ru][n]2c(c4ccccc4c2=NC2=NC(=N3)c3ccccc32)=N1 [RuPc(35PDCA)2]
PI (phototoxicity index) [1]: > 5.6 | pIC50 [1]: 4.74 | ε (molar extinction coefficient) [2]: 48400 M⁻¹ cm⁻¹ | λmax Q ([2]; in water (W)): 632

Compound: Nc1ccc(O)c(C(=O)O)c1.Nc1ccc(O)c(C(=O)O)c1.c1ccc2c(c1)C1=NC3=NC(=Nc4c5ccccc5c5[n]4[Ru][n]4c(c6ccccc6c4=N5)=NC2=N1)c1ccccc13 [RuPc(5AS)2]
pIC50 [1]: 5.70 | ε (molar extinction coefficient) [2]: 66500 M⁻¹ cm⁻¹

Compound: Nc1cccc(C(=O)O)c1.Nc1cccc(C(=O)O)c1.c1ccc2c(c1)C1=NC3=NC(=Nc4c5ccccc5c5[n]4[Ru][n]4c(c6ccccc6c4=N5)=NC2=N1)c1ccccc13 [RuPc(ABA)2]
PI (phototoxicity index) [1]: 8.8 | pIC50 [1]: 5.46 | ε (molar extinction coefficient) [2]: 72500 M⁻¹ cm⁻¹ | λmax Q ([2]; in water (W)): 638

Compound: NCCS(=O)(=O)[O-].NCCS(=O)(=O)[O-].O.O.O.O.O.O.[Na+].[Na+].c1ccc2c(c1)C1=NC3=NC(=Nc4c5ccccc5c5[n]4[Ru][n]4c(c6ccccc6c4=N5)=NC2=N1)c1ccccc13 [RuPc(Tau)2 (Ex 3), Na2 [Ru(Pc)bis(taurine)]hexahydrate]
PI (phototoxicity index) [1]: > 1.1 | pIC50 [1]: 5.05 | ε (molar extinction coefficient) [2]: 79800 M⁻¹ cm⁻¹ | λmax Q ([2]; in methanol (M)): 623 | λmax Q ([2]; in water (W)): 634

Compound: K2 [Ru(Pc)bis(triphenvlphosphine monosulfonate)]trihydrate [Compound A]
PI (phototoxicity index) [1]: > 100 | pIC50 [1]: 5.94 | depths of necrosis compared with previously studied agents (normal rat liver; at similar drug and light levels, Photofrin and AlSPc given ip): comparable to those with previously studied agents | Depth of Necrosis (normal rat liver; dose 5 mg/kg iv, fluence 60 J cm^-2, 650 nm): 1.86 ± 0.34 mm | Depth of Necrosis (normal rat liver; dose 5 mg/kg iv, fluence 120 J cm^-2, 650 nm): 2.5 ± 0.0 mm | Depth of Necrosis (normal rat liver; dose 10 mg/kg iv, fluence 60 J cm^-2, 650 nm): 2.16 ± 0.10 mm | Depth of Necrosis (normal rat liver; dose 10 mg/kg iv, fluence 120 J cm^-2, 650 nm): 2.41 ± 0.16 mm | Depth of Necrosis (normal rat liver; dose 20 mg/kg iv, fluence 60 J cm^-2, 650 nm): 1.66 ± 0.05 mm | Depth of Necrosis (normal rat liver; dose 20 mg/kg iv, fluence 120 J cm^-2, 650 nm): 1.94 ± 0.04 mm | photodynamic activity in vivo (normal rat liver; in words): photodynamically active in vivo | ε (molar extinction coefficient) [2]: 88200 M⁻¹ cm⁻¹ | λmax Q ([2]; in water (W)): 650

Compound: O=S(=O)([O-])c1cccc(P(c2ccccc2)c2ccccc2)c1.O=S(=O)([O-])c1cccc(P(c2ccccc2)c2ccccc2)c1.[K+].[K+].c1ccc2cc3c(cc2c1)C1=NC2=NC(=Nc4c5cc6ccccc6cc5c5[n]4[Ru][n]4c(c6cc7ccccc7cc6c4=N5)=NC3=N1)c1cc3ccccc3cc12 [RuNc(TPPMS)2]
PI (phototoxicity index) [1]: 1.6 | pIC50 [1]: 5.57 | ε (molar extinction coefficient) [2]: 54000 M⁻¹ cm⁻¹ | λmax Q ([2]; in water (W)): 734

ε (molar extinction coefficient) [2]: 72500 M⁻¹ cm⁻¹ | λmax Q ([2]; in water (W)): 632
Compound: O.O.O.O.O=S(=O)([O-])CCc1cc[n+]([Ru-2]2([n+]3ccc(CCS(=O)(=O)[O-])cc3)[n]3c4c5ccccc5c3N=C3N=C(N=c5c6ccccc6c([n]52)=NC2=NC(=N4)c4ccccc42)c2ccccc23)cc1.[K+].[K+] [RuPc(PES)2 (Ex 2), K2 [Ru(Pc)bis(4-pyridineethanesulfonate)]tetrahydrate]
PI (phototoxicity index) [1]: 1 | PC50 (phototoxic concentration 50%) [1]: Inactive

Compound: O=C(O)c1cccnc1.O=C(O)c1cccnc1.c1cnc2c(n1)C1=NC2=Nc2c3nccnc3c3[n]2[Ru][n]2c(c4nccnc4c2=NC2=NC(=N3)c3nccnc32)=N1 [RupyrPc(Nic)2]
PI (phototoxicity index) [1]: 1 | PC50 (phototoxic concentration 50%) [1]: Inactive | ε (molar extinction coefficient) [2]: 45100 M⁻¹ cm⁻¹ | λmax Q ([2]; in water (W)): 625

Compound: O=C(O)c1cccnc1.O=C(O)c1cccnc1.c1ccc2cc3c(cc2c1)C1=NC3=Nc2c3cc4ccccc4cc3c3[n]2[Ru][n]2c(c4cc5ccccc5cc4c2=NC2=NC(=N3)c3cc4ccccc4cc32)=N1 [RuNc(Nic)2]
PI (phototoxicity index) [1]: 22.2 | pIC50 [1]: 6.98 | ε (molar extinction coefficient) [2]: 169000 M⁻¹ cm⁻¹ | λmax Q ([2]; in water (W)): 762

Compound: O=C(O)c1ccncc1C(=O)O.O=C(O)c1ccncc1C(=O)O.c1ccc2c(c1)C1=NC2=Nc2c3ccccc3c3[n]2[Ru][n]2c(c4ccccc4c2=NC2=NC(=N3)c3ccccc32)=N1 [RuPc(34PDCA)2]
PI (phototoxicity index) [1]: 47.6 | pIC50 [1]: 5.68 | ε (molar extinction coefficient) [2]: 58800 M⁻¹ cm⁻¹ | λmax Q ([2]; in water (W)): 630
